Data reported in patent publication US7491723B2, “Alkanol and cycloalkanol-amine derivatives and methods of their use” (Wyeth, priority 2003, dated 2009).
Structures can show the parent of a compound that is named as a salt.

Biological target: T1, human hNET (Homo sapiens, UniProt P23975)
T1 construct: expressed in transfected cells
Assay: Norepinephrine (NE) uptake assay in MDCK-Net6 cells
Type: cell-based
Settings: 1 μM test compound, [3H]NE uptake
Method: MDCK-Net6 cells, stably transfected with human hNET (Pacholczyk, T., R. D. Blakely, and S. G. Amara, Nature, 1991, 350(6316): p. 350-4) were cultured in growth medium containing high glucose DMEM (Gibco, Cat. No. 11995), 10% FBS (dialyzed, heat-inactivated, US Bio-Technologies, Lot FBD1129HI) and 500 μg/ml G418 (Gibco, Cat. No. 10131). Cells were plated at 300,000/T75 flask and cells were split twice weekly. The JAR cell line (human placental choriocarcinoma) was purchased from ATCC (Cat. No. HTB-144). The cells were cultured in growth medium containing RPMI 1640 (Gibco, Cat. No. 72400), 10% FBS (Irvine, Cat. No. 3000), 1% sodium pyruvate (Gibco, Cat. No. 1136) and 0.25% glucose. Cells were plated at 250,000 cells/T75 flask and split twice weekly. For all assays, cells were plated in Wallac 96-well sterile plates (PerkinElmer, Cat. No. 3983498).
On day 1, cells were plated at 3,000 cells/well in growth medium and maintained in a cell incubator (37° C., 5% CO2). On day 2, growth medium was replaced with 200 μl of assay buffer (25 mM HEPES; 120 mM NaCl; 5 mM KCl; 2.5 mM CaCl2; 1.2 mM MgSO4; 2 mg/ml glucose (pH 7.4, 37° C.)) containing 0.2 mg/ml ascorbic acid and 10 μM pargyline. Plates containing cells with 200 μl of assay buffer were equilibrated for 10 minutes at 37° C. prior to addition of compounds. A stock solution of desipramine was prepared in DMSO (10 mM) and delivered to triplicate wells containing cells for a final test concentration of 1 μM. Data from these wells were used to define non-specific NE uptake (minimum NE uptake). Test compounds were prepared in DMSO (10 mM) and diluted in assay buffer according to test range (1 to 10,000 nM). Twenty-five microliters of assay buffer (maximum NE uptake) or test compound were added directly to triplicate wells containing cells in 200 μl of assay buffer. The cells in assay buffer with test compounds were incubated for 20 minutes at 37° C. To initiate the NE uptake, [^3H]NE diluted in assay buffer (120 nM final assay concentration) was delivered in 25 μl aliquots to each well and the plates were incubated for 5 minutes (37° C.). The reaction was terminated by decanting the supernatant from the plate. The plates containing cells were washed twice with 200 μl assay buffer (37° C.) to remove free radioligand. The plates were then inverted, left to dry for 2 minutes, then reinverted and air-dried for an additional 10 minutes. The cells were lysed in 25 μl of 0.25 N NaOH solution (4° C.), placed on a shake table and vigorously shaken for 5 minutes. After cell lysis, 75 μl of scintillation cocktail was added to each well and the plates were sealed with film tape. The plates were returned to the shake table and vigorously shaken for a minimum of 10 minutes to ensure adequate partitioning of organic and aqueous solutions. The plates were counted in a Wallac Microbeta counter (PerkinElmer) to collect the raw cpm data.
For each experiment, a data stream of cpm values collected from the Wallac Microbeta counter was downloaded to a Microsoft Excel statistical application program. Calculations of EC50 values were made using the transformed-both-sides logistic dose response program written by Wyeth Biometrics Department. The statistical program uses mean cpm values from wells representing maximum binding or uptake (assay buffer) and mean cpm values from wells representing minimum binding or uptake ((1 μM desipramine (hNET) or 1 μM paroxetine (hSERT)). Estimation of the EC50 value was completed on a log scale and the line was fit between the maximum and minimum binding or uptake values. All graphic data representation was generated by normalizing each data point to a mean percent based on the maximum and minimum binding or uptake values. The EC50 values reported from multiple experiments were calculated by pooling the raw data from each experiment and analyzing the pooled data as one experiment.

T1 sequence (P23975 whole entry): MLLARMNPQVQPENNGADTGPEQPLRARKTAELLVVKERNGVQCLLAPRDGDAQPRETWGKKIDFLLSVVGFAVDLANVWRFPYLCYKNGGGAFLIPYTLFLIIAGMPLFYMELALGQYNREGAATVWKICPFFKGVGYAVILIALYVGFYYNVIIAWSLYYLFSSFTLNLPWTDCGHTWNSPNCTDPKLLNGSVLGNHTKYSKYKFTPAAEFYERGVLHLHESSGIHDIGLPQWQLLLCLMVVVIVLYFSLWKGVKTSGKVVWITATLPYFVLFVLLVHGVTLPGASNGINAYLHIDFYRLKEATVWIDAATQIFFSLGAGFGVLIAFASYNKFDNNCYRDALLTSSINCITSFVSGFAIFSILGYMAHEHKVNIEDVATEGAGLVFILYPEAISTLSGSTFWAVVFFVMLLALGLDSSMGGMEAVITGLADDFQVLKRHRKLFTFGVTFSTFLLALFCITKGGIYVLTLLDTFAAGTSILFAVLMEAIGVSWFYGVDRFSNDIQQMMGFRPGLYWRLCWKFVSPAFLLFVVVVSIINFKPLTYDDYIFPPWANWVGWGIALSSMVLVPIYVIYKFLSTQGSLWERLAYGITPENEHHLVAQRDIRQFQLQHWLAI

SMILES	inhibition at 1 µM
CN1CCC(O)(C(CN2CCNCC2)c2ccc(Cl)c(Cl)c2)CC1 (centres unmarked) [Example 37, 4-[1-(3,4-dichlorophenyl)-2-piperazin-1-ylethyl]-1-methylpiperidin-4-ol trihydrochloride]	57%
CCC(O)(CC)C(CN1CCNCC1)c1cccc(Br)c1 (centres unmarked) [Example 50, 2-(3-bromophenyl)-3-ethyl-1-piperazin-1-ylpentan-3-ol dihydrochloride]	89%
CCCC(O)(CCC)C(CN1CCNCC1)c1cccc(Cl)c1 (centres unmarked) [Example 51, 4-[1-(3-chlorophenyl)-2-piperazin-1-ylethyl]heptan-4-ol dihydrochloride]	44%
CCC(O)(CC)C(CN1CCNCC1)c1cccc(Cl)c1 (centres unmarked) [Example 52, 2-(3-chlorophenyl)-3-ethyl-1-piperazin-1-ylpentan-3-ol dihydrochloride]	37%
CN1CCC(O)(C(CN2CCNCC2)c2cccc(Br)c2)CC1 (centres unmarked) [Example 58, 4-[1-(3-bromophenyl)-2-piperazin-1-ylethyl]-1-methylpiperidin-4-ol dihydrochloride]	35%
CCC(O)(CC)C(CN1CCNCC1)c1ccc(OC)c(Br)c1 (centres unmarked) [Example 65, 2-(3-bromo-4-methoxyphenyl)-3-ethyl-1-piperazin-1-ylpentan-3-ol dihydrochloride]	12%
CCC(O)(CC)C(CN1CCN(C)CC1)c1ccc(OC)c(Br)c1 (centres unmarked) [Example 66, 2-(3-bromo-4-methoxyphenyl)-3-ethyl-1-(4-methylpiperazin-1-yl)pentan-3-ol dihydrochloride]	26%
OC1(C(CN2CCNCC2)c2cccc(Cl)c2)CCCC2CCCCC21 (centres unmarked) [Example 72, 1-[1-(3-chlorophenyl)-2-piperazin-1-ylethyl]decahydronaphthalen-1-ol dihydrochloride]	25%
COc1ccc(C(CN2CCN(C)CC2)C2(O)CCC(C(C)(C)C)CC2)cc1Br (centres unmarked) [Example 73, 1-[1-(3-bromo-4-methoxyphenyl)-2-(4-methylpiperazin-1-yl)ethyl]-4-tert-butylcyclohexano dihydrochloride]	25%
OC1(C(CN2CCNCC2)c2cccc(Cl)c2)CCC2CCCCC2C1 (centres unmarked) [Example 74, 2-[1-(3-chlorophenyl)-2-piperazin-1-ylethyl]decahydronaphthalen-2-ol dihydrochloride]	24%
OC1(C(CN2CCNCC2)c2cccc(Cl)c2)CCOCC1 (centres unmarked) [Example 77, 4-[1-(3-chlorophenyl)-2-piperazin-1-ylethyl]tetrahydro-2H-pyran-4-ol dihydrochloride]	31%
CN1CCN(CC(c2cccc(Cl)c2)C2(O)CCOCC2)CC1 (centres unmarked) [Example 78, 4-[1-(3-chlorophenyl)-2-(4-methylpiperazin-1-yl)ethyl]tetrahydro-2H-pyran-4-ol dihydrochloride]	22%
CN1CCN(CC(c2cccc(Br)c2)C2(O)CCC(C(C)(C)C)CC2)CC1 (centres unmarked) [Example 79, 1-[1-(3-bromophenyl)-2-(4-methylpiperazin-1-yl)ethyl]4-tert-butylcyclohexanol dihydrochloride]	20%
CCCC(O)(CCC)C(CN1CCNCC1)c1cccc(Br)c1 (centres unmarked) [Example 81, 4-[1-(3-bromophenyl)-2-piperazin-1-ylethyl]heptan-4-ol dihydrochloride]	18%
CCCC(O)(CCC)C(CN1CCN(C)CC1)c1cccc(Br)c1 (centres unmarked) [Example 82, 4-[1-(3-bromophenyl)-2-(4-methylpiperazin-1-yl)ethyl]heptan-4-ol dihydrochloride]	19%
COc1ccc(C(CN2CCNCC2)C2(O)CCC(C(C)(C)C)CC2)cc1Br (centres unmarked) [Example 84, 1-[1-(3-bromo-4-methoxyphenyl)-2-piperazin-1-ylethyl]4-tert-butylcyclohexanol dihydrochloride]	18%
CN1CCN(CC(c2cccc(Cl)c2)C(O)(C2CC2)C2CC2)CC1 (centres unmarked) [Example 86, 2-(3-chlorophenyl)-1,1-dicyclopropyl-3-(4-methylpiperazin-1-yl)propan-1-ol dihydrochloride]	16%
CN1CCN(CC(c2cccc(Br)c2)C2(O)CC(C)(C)CC(C)(C)C2)CC1 (centres unmarked) [Example 88, 1-[1-(3-bromophenyl)-2-(4-methylpiperazin-1-yl)ethyl]-3,3,5,5-tetramethylcyclohexanol dihydrochloride]	16%
CC(C)(C)C1CCC(O)(C(CN2CCNCC2)c2cccc(Cl)c2)CC1 (centres unmarked) [Example 93, 4-tert-butyl-1-[1-(3-chlorophenyl)-2-piperazin-1-ylethyl]cyclohexanol dihydrochloride]	12%
Clc1cccc(C(CN2CCNCC2)C2CCCC2)c1 (centres unmarked) [Example 226, 1-[2-(3-chlorophenyl)-2-cyclopentylethyl]piperazine dihydrochloride]	53%
CN1CCN(CC(c2cccc(Cl)c2)C2CCCC2)CC1 (centres unmarked) [Example 227, 1-[2-(3-chlorophenyl)-2-cyclopentylethyl]-4-methylpiperazine dihydrochloride]	48.2%
Clc1cccc(C(CN2CCNCC2)C2CCCCC2)c1 (centres unmarked) [Example 230, 1-[2-(3-chlorophenyl)-2-cyclohexylethyl]piperazine dihydrochloride]	88.3%
CN1CCN(CC(c2cccc(Cl)c2)C2CCCCC2)CC1 (centres unmarked) [Example 231, 1-[2-(3-chlorophenyl)-2-cyclohexylethyl]-4-methylpiperazine dihydrochloride]	91.2%
Clc1cccc(C(CN2CCNCC2)C2CCCCCC2)c1 (centres unmarked) [Example 234, 1-[2-(3-chlorophenyl)-2-cycloheptylethyl]piperazine dihydrochloride]	67.7%
CN1CCN(CC(c2cccc(Cl)c2)C2CCCCCC2)CC1 (centres unmarked) [Example 235, 1-[2-(3-chlorophenyl)-2-cycloheptylethyl]-4-methylpiperazine dihydrochloride]	80.5%
OC1CCCCC1C(CN1CCNCC1)c1cccc(Cl)c1 (centres unmarked) [Example 238, 2-[1-(3-chlorophenyl)-2-piperazin-1-ylethyl]cyclohexanol dihydrochloride]	72.9%
CC(C)(O)C(CN1CCNCC1)c1cccc(Cl)c1 (centres unmarked) [Example 275, 3-(3-chlorophenyl)-2-methyl-4-piperazin-1-ylbutan-2-ol dihydrochloride]	31%
CN1CCN(CC(c2cccc(Cl)c2)C(C)(C)O)CC1 (centres unmarked) [Example 276, 3-(3-chlorophenyl)-2-methyl-4-(4-methylpiperazin-1-yl)butan-2-ol dihydrochloride]	4%
CC1(C)CC(C)(C)CC(O)(C(CN2CCNCC2)c2cccc(Cl)c2)C1 (centres unmarked) [Example 277, 1-[1-(3-chlorophenyl)-2-piperazin-1-ylethyl]-3,3,5,5-tetramethylcyclohexanol dihydrochloride]	17%
CN1CCN(CC(c2cccc(Cl)c2)C2(O)CC(C)(C)CC(C)(C)C2)CC1 (centres unmarked) [Example 278, 1-[1-(3-chlorophenyl)-2-(4-methylpiperazin-1-yl)ethyl]-3,3,5,5-tetramethylcyclohexanol dihydrochloride]	25%

Same assay, conditions: at 10 μM test compound, [3H]NE uptake

SMILES	inhibition at 10 µM
OC1(C(CN2CCNCC2)c2cccc3ccccc23)CCC2CCCCC2C1 (centres unmarked) [Example 329, 2-[1-(1-naphthyl)-2-piperazin-1-ylethyl]decahydronaphthalen-2-ol dihydrochloride]	20.9%
CN1CCN(CC(c2cccc(Cl)c2)C2(O)CCCC3CCCCC32)CC1 (centres unmarked) [Example 331, 1-[1-(3-chlorophenyl)-2-(4-methylpiperazin-1-yl)ethyl]decahydronaphthalen-1-ol dihydrochloride]	11.4%
